# Read-outs that look alike come from different tables or passages of the source.
# Key:
# Type in all cases: cell-based
# [1] = system: herpes simplex virus 1 (HSV-1; strain HFEM); assay: Plaque reduction test for herpes simplex virus 1; settings: read-out: IC₅₀ Herpes Simplex virus Type 1 HFEM strain in Vero cells
# Experimental: (§1) Cells (Vero or MRC-5) were grown to confluence in 24 well multi-dishes (well diameter = 1.5cm). The drained cell monolayers were each infected with approximately 50 infectious particles of herpes simplex virus 1 (HSV-1; strain HFEM) or herpes simplex virus 2 (HSV-2; strain MS) in 100µl of phosphate-buffered saline. The virus was absorbed for 1 hour at room temperature. After adsorption, residual inoculum was removed from each well and replaced with 0.5ml of Eagle's MEM containing 5% newborn calf serum and 0.9% agarose (A37). Once the agarose had set, dilutions of the test compound, which had been prepared in Eagle's MEM (containing 5% newborn calf serum), were added, each well receiving 0.5ml of liquid overlay. The test compound was diluted to give the following series of concentrations: 200, 60, 20, 6....0.06µg/ml; final concentrations in the assay ranged, therefore, between 100µg/ml and 0.03µg/ml. The infected cultures were incubated at 37°C in a humidified atmosphere of 5% CO₂ until plaques were clearly visible (2 or 3 days for Vero cells, usually […] for MRC-5 cells).
# (§2) Cultures from 1 and 2 were fixed in formol saline, the agarose overlays were carefully washed off, and then the cell monolayers were stained with carbol fuchsin. A stereo microscope was used to count plaques. The IC₅₀ (concentration of drug which inhibits the number of plaques formed by 50% relative to the number of plaques observed in virus control monolayers) of the test compound was calculated. In addition, the monolayers were examined for evidence of drug-induced cytotoxicity; the minimum concentration at which cytotoxicity occurs was recorded.
# [2] = system: herpes simplex virus 2 (HSV-2; strain MS); assay: Plaque reduction test for herpes simplex virus 2
# Experimental: as §1, §2
# [3] = system: varicella zoster virus (VZV; Ellen strain); assay: Plaque reduction test for varicella zoster virus
# Experimental: MRC-5 cells were grown to confluence in 24 well multi-dishes (well diameter = 1.5cm). The drained cell monolayers were each infected with approximately 50 infectious particles of varicella zoster virus (VZV; Ellen strain) in 100µl of phosphate-buffered saline. The virus was adsorbed for 1 hour at room temperature. After adsorption, residual inoculum was removed from each well and replaced with 0.5ml of Eagles's MEM containing 5% […] foetal calf serum and 0.9% agarose (A37). Once the agarose had set, dilutions of the test compound, which had been prepared in Eagle's MEM (containing 5% heat-inactivated foetal calf serum), were added, each well receiving 0.5ml of liquid overlay. The test compound was diluted to give the following series of concentrations: 200, 60, 20, 6....0.06µg/ml; final concentrations in the assay ranged, therefore, between 100µg/ml and 0.03µg/ml. The infected cultures were incubated at 37°C in a humidified atmosphere of 5% CO₂ until plaques were clearly visible (5 or 6 days).
# as §2
# [4] = system: visna virus (strain K184); assay: CPE inhibition test (established monolayer) for lentiviruses; settings: Visna-maedi virus, read-out: MIC Visna Virus K184 strain in SCP cells
# Experimental: 3 x 10⁴ sheep choroid plexus (SCP) cells were plated into individual wells of a 96 well microtitre plate in 100µl of Eagle's MEM with Hanks' salts containing 10% heat inactivated foetal calf serum (FCS). When monolayers had become established (after 1 or 2 days growth) they were washed with 200µl of maintenance medium (Eagle's MEM with Hanks' salts containing 0.5% FCS) and infected with 100µl of visna virus (strain K184) in maintenance medium (20 TCID₅₀/ml). Test samples were diluted with maintenance medium in further 96 well microtitre plates over the range 200-0.06µg/ml by 3-fold dilution steps. 100µl of the diluted samples was then transferred directly onto virus-infected monolayers (final concentration range therefore 100-0.03µg/ml) and incubated at 37°C in a humidified atmosphere containing, 5% CO₂ until virus-induced CPE was maximal in the untreated virus-infected controls (usually 12-14 days). The plates were fixed with formal saline and stained with crystal violet. Virus-induced CPE was then scored microscopically and the minimum concentration of sample giving complete protection of the cell monolayers (MIC) determined.
# [5] = Human alphaherpesvirus 2, MRC5, read-out: IC₅₀ Herpes Simplex virus Type 2 MS strain in MRC-5 cells
# [6] = Human alphaherpesvirus 3, MRC5, read-out: IC₅₀ Varicella Zoster virus Ellen strain in MRC-5 cells
# [7] = Human alphaherpesvirus 1, plaque reduction, HFEM strain, Vero cells
# [8] = Human alphaherpesvirus 2, MRC5, plaque reduction, MS strain, MRC-5 cells, read-out: IC₅₀ Herpes Simplex virus Type 2 MS strain in MRC-5 cells
# [9] = Human alphaherpesvirus 3, MRC5, plaque reduction, Ellen strain, MRC-5 cells, read-out: IC₅₀ Varicella Zoster virus Ellen strain in MRC-5 cells
# [10] = minimum concentration giving complete protection of the cell monolayers from virus-induced CPE, sheep choroid plexus (SCP) cells
"IC50 [1, 7]","MIC [4, 10]",Compound,"IC50 ([1]; Human alphaherpesvirus 1, Vero)","IC50 [2, 5]","IC50 [3, 6]",MIC ([4]; in Ovis aries),"IC50 [2, 8]","IC50 [3, 9]"
> 100 µg/mL,3 µg/mL,"Nc1ncnc2c1ncn2OCCOCP(=O)(O)O [Example 2, 9-[2-(Phosphonemethoxy)ethoxy]adenine]",,,,,69 µg/mL,80 µg/mL
1.1 µg/mL,< 0.003 µg/mL,"Nc1nc2c(ncn2OCCOCP(=O)(O)O)c(=O)[nH]1 [Example 4, 9-[2-(Phosphonomethoxy)ethoxy]guanine]",,,,,0.08 µg/mL,0.06 µg/mL
> 100 µg/mL,0.3 µg/mL,"Nc1ncnc2c1ncn2OCC(CO)OCP(=O)(O)O (centres unmarked) [Example 7, 9-[3-Hydroxy-2-(phosphonomethoxy)propoxy]adenine]",,,,,> 100 µg/mL,66 µg/mL
17 µg/mL,< 0.003 µg/mL,"Nc1nc2c(ncn2OCC(CO)OCP(=O)(O)O)c(=O)[nH]1 (centres unmarked) [Example 10, 9-[3-Hydroxy-2-(phosphonomethoxy)propoxy]guanine]",,,,,7.3 µg/mL,21 µg/mL
24 µg/mL,0.3 µg/mL,"Nc1nc(N)c2ncn(OCCOCP(=O)(O)O)c2n1 [Example 12, 2,6-Diamino-9-[2-phosphonomethoxy)ethoxy]purine]",,,,,,< 3 µg/mL
3.7 µg/mL,< 0.03 µg/mL,"Nc1nc(Cl)c2ncn(OCCOCP(=O)(O)O)c2n1 [Example 13, 2-Amino-6-chloro-9-[2-(phosphonomethoxy)ethoxy]purine]",,,,,,0.5 µg/mL
< 3 µg/mL,< 0.03 µg/mL,"COc1nc(N)nc2c1ncn2OCCOCP(=O)(O)O [Example 14, 2-Amino-6-methoxy-9-[2-(phosphonomethoxy)ethoxy]purine]",,,,,,< 0.03 µg/mL

# Continued, molecule first:
Compound,"IC50 [1, 7]","MIC [4, 10]","IC50 ([1]; Human alphaherpesvirus 1, Vero)","IC50 [2, 5]","IC50 [3, 6]",MIC ([4]; in Ovis aries),"IC50 [2, 8]","IC50 [3, 9]"
"CCOP(=O)(COCCOn1cnc2c(N)ncnc21)OCC [Example 1, 9-[2-(Diethoxyphosphorylmethoxy)ethoxy]adenine]",,,> 100 µg/mL,> 100 µg/mL,> 100 µg/mL,100 µg/mL,,
"CCOP(=O)(COCCOn1cnc2c(=O)[nH]c(N)nc21)OCC [Example 3, 9-[2-(Diethoxyphosphorylmethoxy)ethoxy]guanine]",,,> 100 µg/mL,> 100 µg/mL,51 µg/mL,10 µg/mL,,
"CCOP(=O)(O)COCCOn1cnc2c(=O)[nH]c(N)nc21 [Example 5, 9-[2-[Ethoxy(hydroxy)phosphorylmethoxy)ethoxy]guanine]",,,59 µg/mL,,< 3 µg/mL,,,
"CCOP(=O)(O)COC(CO)COn1cnc2c(N)ncnc21 (centres unmarked) [Example 8, 9-[2-[ethoxy(hydroxy)phosphorylmethoxy]-3-hydroxypropoxy]adenine]",,,> 100 µg/mL,> 100 µg/mL,60 µg/mL,1 µg/mL,,
"CCOP(=O)(COCCOn1cnc2c(N)nc(N)nc21)OCC [Example 11, 2,6-Diamino-9-[2-(diethoxyphosphorylmethoxy)ethoxy]purine]",,,> 100 µg/mL,,> 100 µg/mL,30 µg/mL,,
"Nc1nc2c(ncn2OCC2COP(=O)(O)CO2)c(=O)[nH]1 (centres unmarked) [Example 15, 9-[(2-Hydroxy-2-oxo-1,4,2-dioxaphosphorinan-5-yl)methoxy]guanine]",29 µg/mL,,,,,,,< 3 µg/mL

# From patent EP0319228A2, “Novel compounds” (BEECHAM GROUP PLC, priority 1987, dated 1989)
